Measurements published in paper PMC12040169 (PLOS Biology, 2025).

Assay: in vitro
Conditions: human, hela cells, % viability

Structure (SMILES) | viability at 28.5 h, 10 µM
O=C(NCCS(=O)(=O)c1ccccc1)c1cnc(-c2ccc(Cl)cc2)c(-c2ccco2)c1 [CBK037546] | 96.4%
CC(=O)Nc1ccc(Sc2cnccn2)cc1 [CBK085838] | 89.7%
CCOc1cc(/C=C2/SC(=S)N(c3cccc(C(F)(F)F)c3)C2=O)ccc1OCC(=O)O [CBK264965] | 106%
CC(C)C(=O)N1CCC(n2c(=O)oc3ccc(Cl)cc32)CC1 [CBK284339] | 79.9%
c1cc(-c2nccnc2Oc2ccc3c(c2)OCO3)ccn1 [CBK106726] | 92.4%
CC(C)C[C@H](NC(=O)OC(C)(C)C)C(=O)N1CCC(C(=O)O)CC1 [CBK286742] | 80.6%
Cc1oc(NC(=O)CN(C)Cc2cccc(F)c2)c(C#N)c1C [CBK305609] | 90.9%
O=C(O)CC1(CC(=O)Nc2ccc(N3CCCC3=O)c(Cl)c2)CCCCC1 [CBK296664] | 96.3%
O=C(CC(CN1CCN(CCO)CC1)C(=O)O)Nc1ccccc1F (centres unmarked) [CBK286790] | 86%
Cc1cc(C)n(C(C)CC(=O)Nc2cccc(OC(C)C)c2)n1 (centres unmarked) [CBK281538] | 96.5%
COC(=O)CCc1ccc(S(=O)(=O)N2CCN(Cc3ccc(O)c(F)c3)CC2)cc1 [CBK062813] | 88.9%
CC(C)(C)c1cc(C(=O)CSc2nnc(Nc3ccccc3)n2-c2ccccc2)cc(C(C)(C)C)c1O [CBK261033] | 94.1%
COc1ccc(NC(=O)c2nn(-c3nc4ccccc4o3)c3ccccc23)cc1 [CBK048492] | 93.8%
COc1ccc(C(=O)Nc2nc(-c3ccc(OC)cc3)cs2)cc1 [CBK287325] | 99.2%
Cn1c(SCCC(=O)O)nnc1-c1cccnc1 [CBK269077] | 108%
O=C(Nc1ccc2oc(-c3cccnc3)nc2c1)c1cccc(-c2cc3ccccc3oc2=O)c1 [CBK268612] | 89.3%
CSc1ccccc1C(=O)N1CCN(S(=O)(=O)c2sc(C(=O)O)c(C)c2C(=O)O)CC1 [CBK297149] | 90.4%
COc1ccc(S(=O)(=O)NCCN2CCOCC2)c(C)c1C [CBK266479] | 99.4%
CC(C)C(=O)N1C2CCC1Cn1c(nc3ccccc3c1=O)C2 (centres unmarked) [CBK284450] | 85.3%
Cc1ccc(NC(=O)Cc2cn(C)c3ccccc23)c(C)n1 [CBK200298] | 61.9%
Nc1ncn(Cc2ccccc2)c2nc(SCC(=O)O)nc1-2 [CBK267027] | 99.2%
Oc1ccc(-n2ncc(-c3ccc(F)cc3)n2)cc1 [CBK112904] | 79.7%

Structure (SMILES) | viability at 28.5 h, 10 µM
CCOC(=O)C1CCN(C(=O)c2cnn3c(C)c(Cc4cccc(Cl)c4)c(C)nc23)CC1 [CBK160305] | 92.5%
CC1(C)CC(=O)C=C(SCC(=O)C(C)(C)C)S1 [CBK005523] | 106%
O=C(O)C1CCN(Cc2ccc(Cl)cc2)CC1 [CBK286895] | 89.3%
Cc1nccn1CC1CCCN(Cc2ccnc3ccccc23)C1 (centres unmarked) [CBK281966] | 84.7%
O=C(Nc1ccc2ncccc2c1)c1ccoc1 [CBK159823] | 95.8%
O=C(O)c1cccc(Nc2nc(-c3ccccc3)nc3ccccc23)c1 [CBK263941C] | 97.6%
Oc1ccccc1/C=N/CC(O)C/N=C/c1ccccc1O [CBK261112] | 103%
COc1cc(-c2nccnc2NCC2CCCCC2)cc(OC)c1OC [CBK037647] | 93.9%
COc1ccc(Cl)cc1N1CCN(CC(=O)Nc2ccc(F)c(Cl)c2)CC1 [CBK126417] | 101%
O=C(O)CCCC(=O)Nc1ccccc1-c1ccccc1 [CBK231405] | 94.9%
Cc1c(C(=O)N2CCn3c(C)nnc3C2)sc2cccc(F)c12 [CBK304923] | 87.5%
CC(C)c1ccc(-n2ncc3c(=O)[nH]cnc32)cc1 [CBK288096] | 70.7%
O=C(c1ccc(C#CC2(O)CCCCC2)cc1)N1CCC(C(O)(c2ccccc2)c2ccccc2)CC1 [CBK033758] | 84.7%
CC(C)Cn1c(=O)[nH]c2ncc(-c3cccc4cccnc34)nc21 [CBK064400] | 60.5%
CC(C)(C)c1ccc(-c2nc(Nc3cccc(C(=O)O)c3)c3ccccc3n2)cc1 [CBK265229C] | 96.6%
COCCNC(=O)c1cc(-c2ccc(Cl)cc2)cnc1NS(C)(=O)=O [CBK106421] | 94.4%
NCc1ccc(OC2CCNCC2)cc1 [CBK003920T] | 88.7%
O=C(NCCOc1ccccc1Cl)NC(=O)C1CCN(CCOc2ccc(Br)cc2)CC1 [CBK034897] | 84.6%
CCOc1ccc(CNCCc2ccc(S(N)(=O)=O)cc2)cc1 [CBK268090C] | 94.6%
Cc1ccc(C2=NN(C(=O)CCC(=O)O)C(c3ccc4nccnc4c3)C2)cc1 (centres unmarked) [CBK287802] | 109%
CN(C)CCN(Cc1ccccc1)Cc1ccc([N+](=O)[O-])cc1 [CBK261929] | 87.8%
CC(C)c1cccc(-n2cc(O)c(C(=O)NCCC(=O)N(C)C)n2)c1 [CBK305234] | 86.5%

Structure (SMILES) | viability at 28.5 h, 10 µM
O=CN1CCc2c([nH]c3ccccc23)C12CCN(CCCN1C(=O)C3CCCCC3C1=O)C2 (centres unmarked) [CBK039592] | 114%
CCc1ccccc1Nc1nnc(SC(C)C(=O)N2CCCC2)s1 (centres unmarked) [CBK295197] | 106%
CN1CCCC1CCNC(=O)c1ccc(-c2ccoc2)nc1 (centres unmarked) [CBK156255] | 99.8%
CCn1nc(NC(=O)C2Cc3ccccc3CN2C)cc1C (centres unmarked) [CBK282133] | 93.8%
Cc1cc(C)n(-c2nc3ccccc3nc2N2CCN(S(=O)(=O)c3ccc(F)c(C)c3)CC2)n1 [CBK268508] | 91.1%
O=C(O)c1cc(NC/C=C/c2ccccc2)ccc1N1CCOCC1 [CBK269806] | 106%
CN(Cc1nccs1)C(=O)c1cccc(OCC(=O)N2CCCCC2)c1 [CBK307478] | 108%
Cc1cccc(C(=O)N2CCN(Cc3cc(=O)n4ccsc4n3)CC2)c1 [CBK305037] | 91%
CSCCN1CCCC2(CCN(C(=O)c3ccoc3)C2)C1 (centres unmarked) [CBK132835] | 88.7%
CNC(=O)CN1C(=O)CC2(C1=O)C(=O)N(CCOC)c1ccc(OC)cc12 (centres unmarked) [CBK075144] | 90.8%
O=C(Nc1cccc(Br)c1)C1CN(S(=O)(=O)c2ccccc2)CCN1S(=O)(=O)c1ccccc1 (centres unmarked) [CBK262671] | 79.7%
COC(=O)CCc1sc(NC(=O)CSCC(=O)O)nc1-c1ccc(OC)cc1 [CBK296116] | 93.6%
O=c1c2cnn(-c3ccccc3)c2nc(Cc2ccccc2)n1-c1cccc2ccccc12 [CBK262316] | 82.1%
NC(=O)C1(N2CCCCC2)CCN(C2CC(=O)N(Cc3ccc(N4CCCC4=O)cc3)C2=O)CC1 (centres unmarked) [CBK266598] | 102%
Cc1ncccc1OC1(C(=O)NCc2n[nH]c3c2CCC3)CCNCC1 [CBK307057] | 101%
Cc1ccc(NC(=O)Cn2c(=O)cc(O)c3ccccc32)cc1 [CBK291116] | 95.9%
CC1Cc2cc(C(O)CN3CCCC3)ccc2N1C(=O)C1CC1 (centres unmarked) [CBK286440] | 94.9%
Cc1nn(CC(=O)N2CCCC2)c(=O)c2cc3sccc3n12 [CBK284024] | 95.2%
O=C(O)CSc1nnc(-c2sc3ccccc3c2Cl)n1-c1ccccc1 [CBK263830] | 92.9%
COc1ccc(Cl)cc1NS(=O)(=O)N(C)C [CBK025794] | 90.6%
O=C(NC(c1ccccc1)c1ccco1)C1CCN(Cc2cccc(Cl)c2)CC1 (centres unmarked) [CBK148295] | 103%
CC(C)n1nnnc1SCCC(=O)N1CCN(c2ccc(F)cc2)CC1 [CBK304602] | 95.5%

Structure (SMILES) | viability at 28.5 h, 10 µM
COC(=O)c1sccc1N1C(=O)CSCC1=O [CBK021934] | 103%
CCN(C(=O)CCc1nc2ccccc2n1C)C1CCN(C)CC1 [CBK281994] | 89.9%
COc1ccc(-c2ccccc2)cc1CN(Cc1ccc2c(c1)OCO2)CC(C)O (centres unmarked) [CBK286471] | 89.7%
COc1ccc(C(=O)Nc2ccccc2O)cc1S(=O)(=O)N1CCCCC1 [CBK269665] | 92.6%
Cc1cc(C)c(OCCCN2CCCCCC2)c(Cl)c1 [CBK266026G] | 101%
Cc1cccc(NC(c2ccc(C)s2)c2ccc3ccc(C)nc3c2O)n1 (centres unmarked) [CBK266408] | 94.2%
C/C(=N\NC(=O)c1nc(-c2ccccc2)cc(-c2ccccc2)n1)c1ccc(F)cc1 [CBK262826] | 110%
COC1CCCC(C(=O)N2CCCC2c2nc3ccccc3[nH]2)C1 (centres unmarked) [CBK284007] | 101%
CN1CCN(C)C(COc2cc(C(F)(F)F)ccn2)C1 (centres unmarked) [CBK113460] | 90.7%
CCN1CCCN(c2ccc(-n3ccc(C)n3)nn2)CC1 [CBK306297] | 108%
Cc1ccc(-c2ccc(CCC(=O)O)n2CC(=O)O)cc1 [CBK286922] | 94.8%
CCCCc1c(C(=O)O)cc(OC)cc1C(=O)O [CBK217866] | 93.5%
O=C(NCCCn1ccnc1)Nc1cccc(Cl)c1 [CBK265458] | 93.9%
CCn1c(=O)n(CC(=O)N2CCc3ccccc32)c2cccnc21 [CBK283826] | 89.4%
Cc1ccc(Nc2nc(N)nc(CSc3nnc(-c4ccncc4)o3)n2)cc1 [CBK266464] | 97.7%
CN(CC(=O)NCc1ccc2c(c1)OCO2)Cc1ccc(Br)s1 [CBK295185] | 80.4%
O=C(CSc1nnc(COc2ccc(Br)cc2)o1)OC1CCCCC1 [CBK027482] | 88.8%
O=C(NS(=O)(=O)c1ccccc1)c1ccccc1 [CBK288429] | 88.2%
O=C1NC2(CCN(C(=O)C3CCCC3)CC2)Nc2ccccc21 [CBK283962] | 94.9%
COc1ccc(-c2cnc(NCC3CC3)c(C(=O)N(C)CCN(C)C)c2)cc1 [CBK076338] | 90.5%
COc1ccc(C(C)C)cc1-c1cn2ccnc2c(NCc2ccco2)n1 [CBK037269] | 98.2%
CN1CCN(CC(=O)Nc2sc3c(c2C(=O)Nc2ccccc2)CCCC3)CC1 [CBK268431] | 117%

Same assay, conditions: human, hela cells, % viability, bulk resorufin, single well

Structure (SMILES) | viability at 28.5 h, 10 µM
CCN(CC)CCNC(=O)CN1CCCC1=O [CBK261312] | 84.6%
